Results as given in patent US8735398B2 (Bristol-Myers Squibb Company, priority 2009, dated 2014).

These molecules were tested on HCV 1b genotype (assay: HCV replicon assay (HCV-neo replicon cells, wild-type)). Conditions: HCV 1b genotype replicon; class symbol; read-out: EC50 Range against HCV 1b.
Assay type: cell-based, Hepatitis C virus
Procedure, shortened: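 Inhibition was tested in replicon-bearing cells, both wild-type HCV-neo and lines with NS5A resistance substitutions, using the O'Boyle et al. 2005 replicon method or luciferase-reporter formats.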
Molecule `CC(C)(C)OC(=O)N1C(C(=O)N2CCCC2C(=O)Nc2ccc(-c3cnc(-c4ccc(NC(=O)C5CCCN5C(=O)C5CC6CC6N5C(=O)OC(C)(C)C)cc4)o3)cc2)CC2CC21` [Example D-31, di-tert-butyl (1S,3S,5S,1′S,3′S,5′S)-3,3′-(1,3-oxazole-2,5-diylbis(4,1-phenylenecarbamoyl(2S)-2,1-pyrrolidinediylcarbonyl))bis(2-azabicyclo[3.1.0]hexane-2-carboxylate)] has an EC50 of 1000 to 10000 nM.
For `CC(O)(C(=O)N1C(C(=O)Nc2ccc(-c3cnc(-c4ccc(NC(=O)C5CC6CC6N5C(=O)C(C)(O)c5ccccc5)cc4)o3)cc2)CC2CC21)c1ccccc1` [CB-10, (1S,3S,5S,1′S,3′S,5′S)-N,N′-(1,3-oxazole-2,5-diyldi-4,1-phenylene)bis(2-((2R)-2-hydroxy-2-phenylpropanoyl)-2-azabicyclo[3.1.0]hexane-3-carboxamide)], the EC50 was < 4.57 nM.
For `CC(C)(C)OC(=O)N1CCCC1(Cc1ccccc1)C(=O)N1CCC[C@H]1C(=O)Nc1ccc(-c2cnc(-c3ccc(NC(=O)[C@@H]4CCCN4C(=O)C4(Cc5ccccc5)CCCN4C(=O)OC(C)(C)C)cc3)o2)cc1` (stereo partly drawn) [Example D-32, di-tert-butyl 2,2′-(1,3-oxazole-2,5-diylbis(4,1-phenylenecarbamoyl(2S)-2,1-pyrrolidinediylcarbonyl))bis(2-benzyl-1-pyrrolidinecarboxylate)], the EC50 was 1000 to 10000 nM.

Same assay, conditions: HCV 1b genotype replicon; class symbols; read-out: EC50 Range against HCV 1b
Molecule `O=C(Nc1ccc(-c2cnc(-c3ccc(NC(=O)[C@@H]4C[C@@H](O)CN4C(=O)Cc4ccccn4)cc3)o2)cc1)[C@@H]1C[C@@H](O)CN1C(=O)Cc1ccccn1` [XY-58, (2S,4R,2′S,4′R)-N,N′-(1,3-oxazole-2,5-diyldi-4,1-phenylene)bis(4-hydroxy-1-(2-pyridinylacetyl)-2-pyrrolidinecarboxamide)] has an EC50 of 100 to 999 nM.
With `C[C@H](NC(=O)[C@@H]1CCCO1)C(=O)Nc1ccc(-c2nnc(-c3ccc(NC(=O)[C@H](C)NC(=O)[C@@H]4CCCO4)cc3)o2)cc1` [RK-34, (2S,2′S)-N,N′-(1,3,4-oxadiazole-2,5-diylbis(4,1-phenyleneimino((2S)-1-oxo-1,2-propanediyl)))ditetrahydro-2-furancarboxamide] the EC50 was 1000 to 10000 nM.

Same assay, conditions: Hepatitis C virus, HCV 1b genotype replicon; class symbol; read-out: EC50 Range against HCV 1b
`O=C(Nc1ccc(-c2n[nH]nc2-c2ccc(NC(=O)[C@@H]3C[C@@H](O)CN3C(=O)Cc3ccccc3)cc2)cc1)[C@@H]1C[C@@H](O)CN1C(=O)Cc1ccccc1` [OL-21, (2S,4R,2′S,4′R)-N,N′-(1H-1,2,3-triazole-4,5-diyldi-4,1-phenylene)bis(4-hydroxy-1-(phenylacetyl)-2-pyrrolidinecarboxamide)] gave an EC50 of 100 to 999 nM.
For `O=C(C(=O)N1CCC[C@H]1C(=O)Nc1ccc(-c2nc[nH]c2-c2ccc(NC(=O)[C@@H]3CCCN3C(=O)C(=O)c3ccccc3)cc2)cc1)c1ccccc1` [JG-42, (2S,2′S)-N,N′-(1H-imidazole-4,5-diyldi-4,1-phenylene)bis(1-(oxo(phenyl)acetyl)-2-pyrrolidinecarboxamide)], the EC50 was < 4.57 nM.
`CN(C)[C@@H](C(=O)N1CCCC1C(=O)Nc1ccc(-c2ncc(-c3ccc(NC(=O)[C@@H]4CCCN4C(=O)[C@@H](c4ccccc4)N(C)C)cc3)o2)cc1)c1ccccc1` (stereo partly drawn) [OL-51, (2S)-N,N′-(1,3-oxazole-2,5-diyldi-4,1-phenylene)bis(1-((2R)-2-(dimethylamino)-2-phenylacetyl)-2-pyrrolidinecarboxamide)] gave an EC50 of 4.57 to 99 nM.
`C[C@@](O)(C(=O)N1CC[C@@H](NC(=O)Nc2ccc(-c3cnc(-c4ccc(NC(=O)N[C@@H]5CCN(C(=O)[C@@](C)(O)c6ccccc6)C5)cc4)o3)cc2)C1)c1ccccc1` [FY-7, N′,N′″-(1,3-oxazole-2,5-diyldi-4,1-phenylene)bis(1-((3R)-1-(2-hydroxy-2-phenylpropanoyl)-3-pyrrolidinyl)urea)] gave an EC50 of 100 to 999 nM.
In the case of `O=C(Nc1ccc(-c2nnc(-c3ccc(NC(=O)[C@@H]4CCCN4C(=O)C4CCC4)cc3)o2)cc1)[C@@H]1CCCN1C(=O)C1CCC1` [Example D-59, (2S,2′S)-N,N′-(1,3,4-oxadiazole-2,5-diyldi-4,1-phenylene)bis[1-(cyclobutylcarbonyl)-2-pyrrolidinecarboxamide]], the EC50 is reported as 1000 to 10000 nM.
In the case of `O=C(Nc1ccc(-c2cc(-c3ccc(NC(=O)[C@@H]4C=CCN4C(=O)C4CC4)cc3)[nH]n2)cc1)[C@@H]1C=CCN1C(=O)C1CC1` [OL-37, (2S,2′S)-N,N′-(1H-pyrazole-3,5-diyldi-4,1-phenylene)bis(1-(cyclopropylcarbonyl)-2,5-dihydro-1H-pyrrole-2-carboxamide)], the EC50 is reported as 1000 to 10000 nM.
Work on `O=C(Nc1ccc(-c2cnc(-c3ccc(NC(=O)N[C@@H]4CCN(C(=O)[C@H](O)c5ccccc5)C4)cc3)o2)cc1)N[C@@H]1CCN(C(=O)[C@H](O)c2ccccc2)C1` [FY-5, N′,N′″-(1,3-oxazole-2,5-diyldi-4,1-phenylene)bis(1-((3R)-1-((2R)-2-hydroxy-2-phenylacetyl)-3-pyrrolidinyl)urea)] yielded an EC50 of 100 to 999 nM.
In the case of `CC(=O)N1CCC[C@H]1C(=O)Nc1ccc(-c2nnc(-c3ccc(NC(=O)[C@@H]4CCCN4C(=O)Cc4cccs4)cc3)o2)cc1` [Example D-62, (2S)-1-acetyl-N-[4-[5-[4-[[[(2S)-1-(2-thienylacetyl)-2-pyrrolidinyl]carbonyl]amino]phenyl]-1,3,4-oxadiazol-2-yl]phenyl]-2-pyrrolidinecarboxamide], the EC50 is reported as 1000 to 10000 nM.
Molecule `O=C(Nc1ccc(-c2nc[nH]c2-c2ccc(NC(=O)[C@@H]3CCCN3C(=O)c3nccc4ccccc34)cc2)cc1)[C@@H]1CCCN1C(=O)c1nccc2ccccc12` [JG-48, (2S,2′S)-N,N′-(1H-imidazole-4,5-diyldi-4,1-phenylene)bis(1-(1-isoquinolinylcarbonyl)-2-pyrrolidinecarboxamide)] has an EC50 of 1000 to 10000 nM.
In the case of `O=C(Nc1ccc(-c2nc[nH]c2-c2ccc(NC(=O)[C@@H]3CCCN3C(=O)Cc3ccccc3)cc2)cc1)[C@@H]1CCCN1C(=O)Cc1ccccc1` [OL-10, (2S,2′S)-N,N′-(1H-imidazole-4,5-diyldi-4,1-phenylene)bis(1-(phenylacetyl)-2-pyrrolidinecarboxamide)], the EC50 is reported as 4.57 to 99 nM.
`CCOC(=O)Cc1nc(-c2ccc(NC(=O)[C@@H]3CCCN3C(=O)OCc3ccccc3)cc2)c(-c2ccc(NC(=O)[C@@H]3CCCN3C(=O)OCc3ccccc3)cc2)o1` [OL-2, 4,5-bis[4-[[[(2S)-1-[(phenylmethoxy)carbonyl]-2-pyrrolidinyl]carbonyl]amino]phenyl]-2-oxazoleacetic acid, ethyl ester] gave an EC50 of 1000 to 10000 nM.
Molecule `CC(=O)N1CCC[C@H]1C(=O)Nc1ccc(-c2cnc(-c3ccc(NC(=O)[C@@H]4C=CCN4C(=O)c4cccs4)cc3)o2)cc1` [MS-7, (2S)-N-[4-[5-[4-[[[(2S)-1-acetyl-2-pyrrolidinyl]carbonyl]amino]phenyl]-2-oxazolyl]phenyl]-2,5-dihydro-1-(2-thienylcarbonyl)-1H-pyrrole-2-carboxamide] has an EC50 of 1000 to 10000 nM.
In the case of `CO[C@H]1C[C@@H](C(=O)Nc2ccc(-c3cnc(-c4ccc(NC(=O)[C@@H]5C[C@H](OC)CN5C(=O)[C@@H](c5ccccc5)N(C)C)cc4)o3)cc2)N(C(=O)[C@@H](c2ccccc2)N(C)C)C1` [OL-59, (2S,4S,2′S,4′S)-N,N′-(1,3-oxazole-2,5-diyldi-4,1-phenylene)bis(1-((2R)-2-(dimethylamino)-2-phenylacetyl)-4-methoxy-2-pyrrolidinecarboxamide)], the EC50 is reported as < 4.57 nM.
`CC(=O)N1CCC[C@H]1C(=O)Nc1ccc(-c2nc(-c3ccc(NC(=O)[C@@H]4C=CCN4C(=O)[C@H]4CCCO4)cc3)cs2)cc1` [Example D-51, (2S)-N-[4-[2-[4-[[[(2S)-1-acetyl-2-pyrrolidinyl]carbonyl]amino]phenyl]-4-thiazolyl]phenyl]-2,5-dihydro-1-[[(2R)-tetrahydro-2-furanyl]carbonyl]-1H-pyrrole-2-carboxamide] showed an EC50 of 1000 to 10000 nM.
Work on `C[C@H](NC(=O)[C@](C)(O)c1ccccc1)C(=O)Nc1ccc(-c2nnc(-c3ccc(NC(=O)[C@H](C)NC(=O)[C@](C)(O)c4ccccc4)cc3)o2)cc1` [RK-31, (2R,2′R)-N,N′-(1,3,4-oxadiazole-2,5-diylbis(4,1-phenyleneimino((2S)-1-oxo-1,2-propanediyl)))bis(2-hydroxy-2-phenylpropanamide)] yielded an EC50 of 100 to 999 nM.
`O=C(Nc1ccc(-c2cnc(-c3ccc(NC(=O)[C@@H]4CCCN4C(=O)c4onc5ccccc45)cc3)o2)cc1)[C@@H]1CCCN1C(=O)c1onc2ccccc12` [JG-30, (2S,2′S)-N,N′-(1,3-oxazole-2,5-diyldi-4,1-phenylene)bis(1-(2,1-benzisoxazol-3-ylcarbonyl)-2-pyrrolidinecarboxamide)] showed an EC50 of 4.57 to 99 nM.
Work on `CC(=O)N1CCC[C@H]1C(=O)Nc1ccc(-c2cnc(-c3ccc(NC(=O)[C@@H]4CCCN4C(C)=O)cc3)o2)cc1` [JG-11, (2S,2′S)-N,N′-(1,3-oxazole-2,5-diyldi-4,1-phenylene)bis(1-acetyl-2-pyrrolidinecarboxamide)] yielded an EC50 of 1000 to 10000 nM.

Same assay, conditions: Hepatitis C virus, HCV 1b genotype replicon; class symbols; read-out: EC50 Range against HCV 1b
`O=C(Nc1ccc(-c2cnc(-c3ccc(NC(=O)[C@@H]4CCCN4C(=O)C4CCOC4)cc3)o2)cc1)[C@@H]1CCCN1C(=O)C1CCOC1` (stereo partly drawn) [XY-18, (2S,2′S)-N,N′-(1,3-oxazole-2,5-diyldi-4,1-phenylene)bis(1-(tetrahydro-3-furanylcarbonyl)-2-pyrrolidinecarboxamide)] showed an EC50 of 4.57 to 99 nM.
Work on `CCn1c(=O)n(C(C)C(=O)N2CCC[C@H]2C(=O)Nc2ccc(-c3cnc(-c4ccc(NC(=O)[C@@H]5CCCN5C(=O)C(C)n5c(=O)n(CC)c6ccccc65)cc4)o3)cc2)c2ccccc21` (stereo partly drawn) [JR-10, (2S,2′S)-N,N′-(2,5-oxazolediyldi-4,1-phenylene)bis[1-[2-(3-ethyl-2,3-dihydro-2-oxo-1H-benzimidazol-1-yl)-1-oxopropyl]-2-pyrrolidinecarboxamide]] yielded an EC50 of 1000 to 10000 nM.
`Cc1cc(C(=O)N2CCC[C@H]2C(=O)Nc2ccc(-c3cnc(-c4ccc(NC(=O)[C@@H]5CCCN5C(=O)c5cc(C)c(C)o5)cc4)o3)cc2)oc1C` [XY-27, (2S,2′S)-N,N′-(1,3-oxazole-2,5-diyldi-4,1-phenylene)bis(1-(4,5-dimethyl-2-furoyl)-2-pyrrolidinecarboxamide)] gave an EC50 of 100 to 999 nM.

Same assay, conditions: Hepatitis C virus, HCV 1b genotype replicon; read-out: EC50 1b
`O=C(Nc1ccc(-c2nnc(-c3ccc(NC(=O)[C@@H]4CCCN4C(=O)C4CCC4)cc3)o2)cc1)[C@@H]1CCCN1C(=O)C1CCC1` [Example D-59, (2S,2′S)-N,N′-(1,3,4-oxadiazole-2,5-diyldi-4,1-phenylene)bis[1-(cyclobutylcarbonyl)-2-pyrrolidinecarboxamide]] was tested, and the EC50 was 5450 nM.
For `CC(=O)N1CCC[C@H]1C(=O)Nc1ccc(-c2nnc(-c3ccc(NC(=O)[C@@H]4CCCN4C(=O)Cc4cccs4)cc3)o2)cc1` [Example D-62, (2S)-1-acetyl-N-[4-[5-[4-[[[(2S)-1-(2-thienylacetyl)-2-pyrrolidinyl]carbonyl]amino]phenyl]-1,3,4-oxadiazol-2-yl]phenyl]-2-pyrrolidinecarboxamide], the EC50 was 3470 nM.
With `O=C(Nc1ccc(-c2nc[nH]c2-c2ccc(NC(=O)[C@@H]3CCCN3C(=O)c3nccc4ccccc34)cc2)cc1)[C@@H]1CCCN1C(=O)c1nccc2ccccc12` [JG-48, (2S,2′S)-N,N′-(1H-imidazole-4,5-diyldi-4,1-phenylene)bis(1-(1-isoquinolinylcarbonyl)-2-pyrrolidinecarboxamide)] the EC50 was 2340 nM.
In the case of `CC(=O)N1CCC[C@H]1C(=O)Nc1ccc(-c2nc(-c3ccc(NC(=O)[C@@H]4C=CCN4C(=O)[C@H]4CCCO4)cc3)cs2)cc1` [Example D-51, (2S)-N-[4-[2-[4-[[[(2S)-1-acetyl-2-pyrrolidinyl]carbonyl]amino]phenyl]-4-thiazolyl]phenyl]-2,5-dihydro-1-[[(2R)-tetrahydro-2-furanyl]carbonyl]-1H-pyrrole-2-carboxamide], the EC50 is reported as 3430 nM.
